Values after ≈ are worked out from the molar mass of the structure shown. Like-named read-outs stand apart in the source and are kept apart here. Starred links: 1 amine or outer side, 2 acyl side, 3 side chain; linkers in the order of their positions; H or OH if unused. Non-standard residues stand in square brackets, D forms with d. Residues, ends and D or L forms follow the SMILES beside them. Groups on a side chain read outwards from the residue. *: point of attachment. X5 = CCCCCCCCCCCCCCCC(=O)N[C@@H](CCC(=O)N[C@@H](CCC(=O)N[C@@H](CCC(=O)NCCCOCCOCCOCCCNC(=O)CCC(=O)NCCCOCCOCCOCCCNC(=O)CCC(=O)NCCCOCCOCCOCCCNC(=O)CCC(=O)NCCCOCCOCCOCCCN*)C(=O)O)C(=O)O)C(=O)O; X1 = CCCCCCCCCCCCCCCC(=O)N[C@@H](CCC(=O)N[C@@H](CCC(=O)N[C@@H](CCC(=O)NCCCOCCOCCOCCCNC(=O)CCC(=O)NCCCOCCOCCOCCCNC(=O)CCC(=O)NCCCOCCOCCOCCCN*)C(=O)O)C(=O)O)C(=O)O; γGlu = O=C(O)[C@H](CCC(=O)[*:2])N[*:1]; Stearoyl = CCCCCCCCCCCCCCCCCC(=O)*; Suc = O=C(CCC(=O)[*:2])[*:1]; αMeK = C[C@](N)(CCCCN)C(=O)O; AEEA = NCCOCCOCC(=O)O; Aib = CC(C)(N)C(=O)O
Assays:
RXFP1 = target: T1, RXFP1 (Homo sapiens, UniProt Q9HBX9); assay: OVCAR5 cAMP assay (HTRF); format: cell-based; details: for EC50: OVCAR 5 cells expressing endogenous RXFP1, cAMP readout; for Emax: OVCAR 5 cells, maximal cAMP relative to H2-relaxin
T1 construct: OVCAR5 cells expressing endogenous RXFP1; endogenous in cells; host or cells: OVCAR5
T1 sequence (Q9HBX9 1-757): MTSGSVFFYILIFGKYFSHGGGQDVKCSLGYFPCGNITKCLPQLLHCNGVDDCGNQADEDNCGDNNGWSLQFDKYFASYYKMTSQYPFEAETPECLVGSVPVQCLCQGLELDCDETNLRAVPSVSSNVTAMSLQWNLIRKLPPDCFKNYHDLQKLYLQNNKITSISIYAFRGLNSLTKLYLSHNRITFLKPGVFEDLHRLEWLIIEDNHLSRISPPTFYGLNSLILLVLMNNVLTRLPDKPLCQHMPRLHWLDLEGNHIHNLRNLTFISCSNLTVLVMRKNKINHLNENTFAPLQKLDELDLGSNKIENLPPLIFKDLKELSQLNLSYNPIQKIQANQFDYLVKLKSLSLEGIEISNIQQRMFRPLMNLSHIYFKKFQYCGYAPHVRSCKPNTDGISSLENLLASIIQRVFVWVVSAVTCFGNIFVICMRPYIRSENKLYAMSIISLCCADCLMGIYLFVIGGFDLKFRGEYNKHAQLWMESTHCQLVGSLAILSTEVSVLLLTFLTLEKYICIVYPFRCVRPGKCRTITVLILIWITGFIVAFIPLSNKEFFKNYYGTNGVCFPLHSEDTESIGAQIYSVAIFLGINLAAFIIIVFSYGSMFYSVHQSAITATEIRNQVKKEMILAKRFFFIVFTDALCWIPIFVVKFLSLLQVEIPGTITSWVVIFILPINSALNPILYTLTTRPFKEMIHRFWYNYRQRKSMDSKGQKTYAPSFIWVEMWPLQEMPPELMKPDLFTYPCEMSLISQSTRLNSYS
Procedure, shortened: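 Peptide agonism measured as intracellular cAMP (HTRF) after 30 min at 37° C in serum-free medium, following 40 min 1 mM IBMX preincubation of OVCAR5 cells. Nonlinear regression gave EC50; Emax % = 100 × compound maximal cAMP / H2-relaxin maximal cAMP.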

[1] = Solubility testing in buffer; format: physicochemical; details: target solubility 10.0 mg/ml
Method: Prior to the testing of solubility of a peptide batch, its purity (HPLC-UV) was determined.
Acetate Buffer 50 mM pH4.5: 0.75 g C2H3C02Na,3H2O (Sigma S7545)+0.35 ml CH3CO2H 100% solution dissolved in Millipore water, adjusted to pH with diluted (1:1) CH3CO2H and diluted to 250 ml with Millipore water.
In a 4 ml Ependorph vial, an accurately weighed sample of compound was diluted in study media to obtain target concentration of 2, 6 or 10 mg/ml of pure compound. The sample vials were shacked (rock 'roll shaker) for ˜19 h. 300 μL aliquots were filtered through a Millipore “Solvinert” plate (0.45 μm-PTFE hydrophilic).
pH was measured with a micro electrode
Waters Acquity UPLC System with DAD detector
Column: Waters Peptide Column CSH C18 (130 Å; 1.7 μm; 50*2.1 mm)
Column temperature: 60° C.
Full loop (about 5 μL)—overfill factor 5
Weak et Strong wash: H2O/ACN (75/25; V/V); Seal wash: H2O/IsOH (95/5; V/V). Mobile phase:
Solvent A: 0.05% TFA in H2O; Solvent B: 0.035% TFA in CH3CN
Gradient: from 0 to 12 min B=2% to 60%, from 12 to 14 min B=60% to 100%. Column washing 100% B 1 min, column equilibration 2% B 2.5 min.
UV detector: wavelength: 220 nm.

[2] = acetate buffer 50 mM pH 4.5, read-out: Solubility Acetate buffer pH 4.5
[3] = phosphate buffer 50 mM pH 7.4, read-out: Solubility phosphate buffer pH 7.4

EC50 (RXFP1) [nM]	Emax (RXFP1) [%]	solubility [1, 2] [µg/mL]	solubility [1, 3] [µg/mL]	Compound
0.54	94	7390 (≈ 1560 µM)	8470 (≈ 1790 µM)	CCCCCCCCCCCCCCCC(=O)N[C@@H](CCC(=O)N[C@@H](CCC(=O)N[C@@H](CCC(=O)NCCCOCCOCCOCCCNC(=O)CCC(=O)NCCCOCCOCCOCCCNC(=O)CCC(=O)NCCCOCCOCCOCCCNC(=O)CCC(=O)NCCCOCCOCCOCCCNC(=O)CCC(=O)NCCCC[C@H](NC(=O)CNC(=O)[C@H](CCC(=O)O)NC(=O)[C@@H](NC(=O)C(C)(C)NC(=O)[C@@H](NC(=O)[C@H](CCCCNC(C)=O)NC(=O)[C@H](C)NC(=O)[C@H](CCCNC(=N)N)NC(=O)[C@@H](NC(=O)[C@H](CCCCN)NC(=O)[C@H](CCC(=O)O)NC(=O)[C@H](CCCNC(=N)N)NC(=O)CNC(=O)[C@H](CCC(=O)O)NC(=O)[C@H](CC(C)C)NC(C)=O)C(C)C)[C@@H](C)CC)[C@@H](C)CC)C(=O)N[C@@H](CO)C(=O)N[C@H](C(=O)N[C@@H](Cc1c[nH]c2ccccc12)C(=O)N[C@@H](CO)C(=O)NC(C)(C)C(=O)N[C@@H](CCCNC(=N)N)C(=O)N[C@@H](CCCCN)C(=O)N[C@@H](CCCCNC(C)=O)C(N)=O)[C@@H](C)O)C(=O)O)C(=O)O)C(=O)O [compound 74] (Ac-LEGREKVRAK(Ac)I[Aib]IEGK([Suc-X5])STWS[Aib]RKK(Ac)-NH2)
36.4	100	280 (≈ 63.9 µM)	6930 (≈ 1580 µM)	CCCCCCCCCCCCCCCC(=O)N[C@@H](CCC(=O)N[C@@H](CCC(=O)N[C@@H](CCC(=O)NCCCOCCOCCOCCCNC(=O)CCC(=O)NCCCOCCOCCOCCCNC(=O)CCC(=O)NCCCOCCOCCOCCCNC(=O)CCC(=O)NCCCC[C@H](NC(=O)CNC(=O)[C@H](CCC(=O)O)NC(=O)C(C)(C)NC(=O)C(C)(C)NC(=O)[C@@H](NC(=O)[C@H](CCCCNC(C)=O)NC(=O)[C@H](C)NC(=O)[C@H](CCCNC(=N)N)NC(=O)[C@@H](NC(=O)[C@H](Cc1ccccc1)NC(=O)[C@H](CCC(=O)O)NC(=O)[C@H](CCCNC(=N)N)NC(=O)CNC(=O)[C@H](CCC(=O)O)NC(=O)[C@H](CC(C)C)NC(C)=O)C(C)C)[C@@H](C)CC)C(=O)N[C@@H](CO)C(=O)N[C@H](C(=O)N[C@@H](Cc1ccccc1)C(=O)N[C@@H](CO)C(=O)N[C@@](C)(CCCCN)C(=O)N[C@@H](CCCNC(=N)N)C(=O)N[C@@H](C)C(=O)N[C@@H](CCCCNC(C)=O)C(N)=O)[C@@H](C)O)C(=O)O)C(=O)O)C(=O)O [compound 24] (Ac-LEGREFVRAK(Ac)I[Aib][Aib]EGK([Suc-X1])STFS[αMeK]RAK(Ac)-NH2)
0.43	96	6680 (≈ 1640 µM)	6760 (≈ 1660 µM)	CCCCCCCCCCCCCCCCCC(=O)N[C@@H](CCC(=O)N[C@@H](CCC(=O)N[C@@H](CCC(=O)NCCOCCOCC(=O)NCCOCCOCC(=O)NCCOCCOCC(=O)NCCOCCOCC(=O)NCCCC[C@H](NC(=O)CNC(=O)[C@H](CCC(=O)O)NC(=O)C(C)(C)NC(=O)C(C)(C)NC(=O)[C@@H](NC(=O)[C@H](CCCCNC(C)=O)NC(=O)[C@H](C)NC(=O)[C@H](CCCNC(=N)N)NC(=O)[C@@H](NC(=O)[C@H](CCCCN)NC(=O)[C@H](CCC(=O)O)NC(=O)[C@H](CCCNC(=N)N)NC(=O)CNC(=O)[C@H](CCC(=O)O)NC(=O)[C@H](CC(C)C)NC(C)=O)C(C)C)[C@@H](C)CC)C(=O)N[C@@H](CO)C(=O)N[C@H](C(=O)N[C@@H](Cc1ccccc1)C(=O)N[C@@H](CO)C(=O)N[C@@](C)(CCCCN)C(=O)N[C@@H](CCCNC(=N)N)C(=O)N[C@@H](C)C(=O)N[C@@H](CCCCNC(C)=O)C(N)=O)[C@@H](C)O)C(=O)O)C(=O)O)C(=O)O [compound 26] (Ac-LEGREKVRAK(Ac)I[Aib][Aib]EGK([AEEA-AEEA-AEEA-AEEA-γGlu-γGlu-γGlu-Stearoyl])STFS[αMeK]RAK(Ac)-NH2)
